Experimental data: PubChem BioAssay AID1963829 (Molecular Pharmacology Branch, DTP, NCI, 2024)

System: 935938-334-R-J1-PDC complex spheroid viability
Assay: Anticancer human tumor 935938-334-R-J1-PDC patient-derived small intestine adenocarcinoma cell line growth inhibition [POLQ]
Conditions: for viability, T/C: stronger effect = lower value
Protocol: Multicellular complex tumor spheroid response to Polymerase (POL) inhibitors (novobiocin, ART-558, RP6685) in combination with a variety of drugs and investigational agents in selected tumor cell lines
The POL inhibitors (novobiocin, ART-558, and RP6685) were evaluated both individually and in combination with standard of care and investigational anticancer small molecules within a complex spheroid model of solid tumors. . Complex spheroids include a stromal component modeled by human endothelial cells (HUVEC) and fibroblasts modeled by human mesenchymal stem cells (MSCs). The concentration ranges selected for each drug and investigational agent were based upon clinically achievable concentrations if the clinical Cmax of the agent was known.
Compounds. The drugs and investigational agents: novobiocin (NSC847541), ART-558 (NSC835418), RP-6685 (NSC848927), peposertib (NSC802822), ceralasertib (NSC780249), elimusertib (NSC800525), camonsertib (NSC841442), AZD-1390 (NSC803789), olaparib (NSC753686), talazoparib (NSC767125), rucaparib (NSC756644), sotorasib (NSC818433), MRTX-1133 (NSC836407), SN-38 (NSC673596), topotecan (NSC609699), epotoside (NSC141540), doxorubicin (NSC123127), gemcitabine (NSC613327), 5-fluorouracil (NSC19893), paclitaxel (NSC125973), vemurafenib (NSC761431), MSA-2 (NSC828583), SN-011 (NSC837082), adavosertib (NSC754352), prexasertib (NSC758257), carboplatin (NSC241240) and oxaliplatin (NSC266046), were obtained from the National Cancer Institute (NCI) Developmental Therapeutics Program Chemical Repository (21). The FDA-approved anticancer drug set is available from the Developmental Therapeutics Program at https://dtp.cancer.gov/organization/dscb/obtaining/. […] The stock solutions were prepared in dimethyl sulfoxide (DMSO, Sigma-Aldrich, St. Louis, MO, cat. D2650), except for the platinum compounds which were prepared in saline (Quality Biological, Gaithersburg, MD, cat. 114-055-101), at 800-fold the tested concentration and stored at -70 degrees C prior to their use. All drugs and investigational agents were tested over a range starting from a high concentration at or near the clinical Cmax and decreasing in half-log increments. If the clinical Cmax for an agent had not been determined, the highest concentration tested was 10 microM, except for SN-38, which was tested at a high concentration of 1 microM.
Cell Culture. All cells were maintained in an incubator at 37 degrees C and 5% CO2 with 95% humidity. The PDC lines were cultured according to standard operating procedures established by the NCI PDMR (https://pdmr.cancer.gov). Table 3 of the manuscript, lists the cell lines along with the number of the three cell types plated to form the mct-spheroids and media for tumor cell growth. After thawing, all PDC lines, except 997537-175-T-J1-PDC and 415267-285-R-J2-PDC, were cultured in Matrigel-coated flasks prepared with a working solution of 1X Ham's F-12 nutrient mix, without supplementation (Thermo Fisher Scientific, cat. 11765054), 100 U/mL penicillin-streptomycin (Thermo Fisher Scientific, cat. 15140122), and 2.5% Matrigel (Corning Inc., Corning, NY, cat. 354248) for the first three passages. The two PDC lines 997537-175-T-J1-PDC and 415267-285-R-J2-PDC were cultured on uncoated flasks. The 857933-349-R-J2-PDC line was cultured in 6C/Colon 1B media containing advanced DMEM/F-12 (Thermo Fisher Scientific, cat. 12634028), 10 mM HEPES (Thermo Fisher Scientific, cat. 15630080), 1X GlutaMAX supplement (Thermo Fisher Scientific, cat. 35050061), 0.1 mg/mL primocin (InvivoGen, San Diego, CA, cat. ant-pm-2), 10% defined fetal bovine serum, heat inactivated (HyClone Laboratories Inc., Logan, UT, cat. SH30070.03HI), 50% L-WRN conditioned media (ATCC, cat. CRL-3276), 1.25 mM N-Acetyl-L-cysteine (Sigma-Aldrich, cat. A9165), 10 mM nicotinamide (Sigma-Aldrich, cat. N0636), 1X B-27 supplement (Thermo Fisher Scientific, cat. 17504044), 1X N-2 supplement (Thermo Fisher Scientific, cat. […]
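Further: spheroids exposed to drugs for seven days before viability read.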
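Wherever viability, T/C is given: 100% = DMSO vehicle control wells.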

SMILES: COC1C(OC(N)=O)C(O)C(Oc2ccc3c(O)c(NC(=O)c4ccc(O)c(CC=C(C)C)c4)c(=O)oc3c2C)OC1(C)C (stereo not drawn)
- IC50 (compound alone, run of 11/27/2023): > 10000 nM

SMILES: COc1cccc(OCCCN)c1-c1cc(Nc2cnc(C#N)cn2)n[nH]1 + Cc1cccc(N(C)C(=O)C2C(O)CCN2c2nc(C)cc(C(F)(F)F)c2C#N)c1
- IC50 (curve of first compound, second compound 0.0316 µM): 55.9 nM
- IC50 (curve of first compound, second compound 0.1 µM): 50.9 nM
- IC50 (curve of first compound, second compound 0.316 µM): 40.9 nM
- IC50 (curve of first compound, second compound 1 µM): 43.7 nM
- IC50 (curve of first compound, second compound 3.16 µM): 40 nM
- IC50 (curve of first compound, second compound 10 µM): 38.5 nM
- viability, T/C (second compound 0.0316 µM, first compound 0.00316 µM): 118%
- viability, T/C (second compound 0.0316 µM, first compound 0.01 µM): 94.9%
- viability, T/C (second compound 0.0316 µM, first compound 0.0316 µM): 65.2%
- viability, T/C (second compound 0.0316 µM, first compound 0.1 µM): 36.8%
- viability, T/C (second compound 0.0316 µM, first compound 0.316 µM): 12.2%
- viability, T/C (second compound 0.0316 µM, first compound 1 µM): 8.59%
- viability, T/C (second compound 0.1 µM, first compound 0.00316 µM): 101%
- viability, T/C (second compound 0.1 µM, first compound 0.01 µM): 75.2%
- viability, T/C (second compound 0.1 µM, first compound 0.0316 µM): 69.6%
- viability, T/C (second compound 0.1 µM, first compound 0.1 µM): 31%
- viability, T/C (second compound 0.1 µM, first compound 0.316 µM): 9.36%
- viability, T/C (second compound 0.1 µM, first compound 1 µM): 10.3%
- viability, T/C (second compound 0.316 µM, first compound 0.00316 µM): 96%
- viability, T/C (second compound 0.316 µM, first compound 0.01 µM): 95.2%
- viability, T/C (second compound 0.316 µM, first compound 0.0316 µM): 48.1%
- viability, T/C (second compound 0.316 µM, first compound 0.1 µM): 35.3%
- viability, T/C (second compound 0.316 µM, first compound 0.316 µM): 10.1%
- viability, T/C (second compound 0.316 µM, first compound 1 µM): 10.6%
- viability, T/C (second compound 1 µM, first compound 0.00316 µM): 106%
- viability, T/C (second compound 1 µM, first compound 0.01 µM): 86%
- viability, T/C (second compound 1 µM, first compound 0.0316 µM): 60.7%
- viability, T/C (second compound 1 µM, first compound 0.1 µM): 28.5%
- viability, T/C (second compound 1 µM, first compound 0.316 µM): 9.11%
- viability, T/C (second compound 1 µM, first compound 1 µM): 9.21%
- viability, T/C (second compound 3.16 µM, first compound 0.00316 µM): 138%
- viability, T/C (second compound 3.16 µM, first compound 0.01 µM): 90.6%
- viability, T/C (second compound 3.16 µM, first compound 0.0316 µM): 69.5%
- viability, T/C (second compound 3.16 µM, first compound 0.1 µM): 15.7%
- viability, T/C (second compound 3.16 µM, first compound 0.316 µM): 8.96%
- viability, T/C (second compound 3.16 µM, first compound 1 µM): 11.1%
- viability, T/C (second compound 10 µM, first compound 0.00316 µM): 96.5%
- viability, T/C (second compound 10 µM, first compound 0.01 µM): 94.8%
- viability, T/C (second compound 10 µM, first compound 0.0316 µM): 57.9%
- viability, T/C (second compound 10 µM, first compound 0.1 µM): 11.6%
- viability, T/C (second compound 10 µM, first compound 0.316 µM): 11.9%
- viability, T/C (second compound 10 µM, first compound 1 µM): 9.17%
